Experimental data as given in ChEMBL document CHEMBL3124883, “Halting HCV Replication with NS5A Inhibitors and NS5B Polymerase Inhibitors: Effective New Treatments of HCV Infection” (ACS Med Chem Lett, 2014).
Calls of active or inactive are those of the source. The rule behind the calls is not given here.

Each molecule was assayed on Hepatitis C virus (assay: Antiviral activity against HCV genotype 1b infected in human HuH7 cells assessed as total cellular RNA after 5 days by RT-PCR analysis). Conditions: Huh-7, 120 h.
Format: functional, organism-based, Hepacivirus hominis

Row | EC50 [nM] | Compound
1 | 1 | C#Cc1ccc(-c2cn(-c3ccc(-c4cnc(-c5cnc([C@@H]6CCCN6C(=O)[C@@H](NC(=O)OC)C(C)C)[nH]5)[nH]4)cc3)nn2)cc1
2 | < 1 | COC(=O)N[C@H](C(=O)N1C[C@@H](SC)C[C@H]1c1ncc(-c2ccc(-c3ccc(-c4cnc([C@@H]5C[C@H](SC)CN5C(=O)[C@@H](NC(=O)OC)c5ccccc5)[nH]4)cc3)cc2)[nH]1)c1ccccc1
3 | 100 | COC(=O)N[C@@H](CC(C)C)C(=O)N1CCC[C@H]1c1ncc(-c2ccc(-c3ccccc3)cc2)[nH]1

Each molecule was assayed on Hepatitis C virus (assay: Antiviral activity against HCV infected in human HuH7 cells assessed as inhibition of RNA replication after 72 hrs by luciferase reporter gene assay). Conditions: Hepacivirus hominis; Huh-7.
Format: functional, organism-based

Row | Compound | inhibition
4 | Cn1c(-c2cnccn2)c(C2CCCC2)c2ccc(C(=O)NC3(c4nc5ccc(/C=C/C(=O)O)cc5n4C4CCC4)CCCC3)cc21 | Active
5 | Cn1c(C2(NC(=O)c3ccc4c(C5CCCC5)c(-c5ccccn5)n(C)c4c3)CCC2)nc2cc(/C=C/C(=O)O)ccc21 | Active
6 | Cc1c(-c2ccccn2)n(C2CCCC2)c2ccc(C(=O)NC3(c4nc5cc(/C=C/C(=O)O)ccc5n4C)CCC3)cc12 | Active
7 | C/C(=C\c1ccc2nc(C3(NC(=O)c4ccc5c(C6CCCC6)c(-c6cccc7cc(C)[nH]c67)n(C)c5c4)CCC3)n(C)c2c1)C(=O)O | Active
